{"source": "paper PMC3527734", "about": "“Peripheral injections of melanin-concentrating hormone receptor 1 antagonist S38151 decrease food intake and body weight in rodent obesity models” (Frontiers in Endocrinology, 2012)", "key": {"[1]": {"assay": "stability in TRIS buffer pH 7.4", "type": "physicochemical", "conditions": "pH 7.4, Tris buffer pH 7.4, 40 μM, LC-MS/MS, representative of three experiments, read-out: % S38151 remaining", "method": "(§1) First, S38151 was incubated for 16 h at 4°C and 37°C in mouse plasma or in TRIS buffer (pH 7.4). Next, plasma proteins were precipitated with two volumes of acetonitrile. After centrifugation and dilution with a water/acetonitrile mixture (50/50 v/v), the supernatant was injected onto a triple quadripole mass spectrometer (Ultima, Micromass WATERS Corporation, Milford, USA). The liquid chromatographic system consisted of an Agilent 1100 analytic pump (Agilent, Santa Clara, USA) equipped with an Alpha Mos CTC autosampler (Alpha Mos, Toulouse, France). Mass detection was performed using the m/z transition 743.5 > 163, in positive electrospray. A second stability study was performed at a lower concentration (1 μM) and for 4 h, with the following sampling times: 0, 15, 45, 90, and 240 min. At each sampling time, 50 μL of plasma were precipitated with two volumes of acetonitrile, and after centrifugation were directly injected onto the LC-MS/MS system. The same treatment was used for the buffer samples.\n(§2) Figure 2 Studies regarding the stability of S38151. A solution of S38151 (40 μM) was incubated with either Tris buffer, pH 7.4 (hatched bars), or mouse plasma samples (dark bars) for 16 h at 4°C or 37°C. The samples were analyzed using liquid chromatography coupled to mass spectrometry. Experiments were repeated three times. The chart presented is representative of the experimental results. […]"}, "[2]": {"assay": "stability in mouse plasma", "type": "in vitro ADME", "conditions": "LC-MS/MS, representative of three experiments, read-out: % S38151 remaining", "method": "as §1, §2"}, "[3]": {"target": "MCH1", "conditions": "ref Audinot et al., 2009, cited from earlier work; for Kb: full antagonist, CHO cells over-expressing MCH1", "from_the_text": "S38151 was synthesized during a process that was attempting to find peptides or pseudopeptides with affinity at MCH1 receptor that also had greater stability in biological media. This pseudopeptide is derived from another, very similar agonist, pGua (MCH7-17) (Audinot et al., [2001a], [2009]). […] This activity was specific to MCH1, since it ..."}, "[4]": {"test_system": "Zucker fa/fa rats", "assay": "conditioned taste aversion", "type": "in vivo, rat", "conditions": "test days 4, 7, 11, 14 versus control; lithium chloride 75 mg/kg i.p.; S38151 20 nmol/kg i.c.v.; n = 10-11"}, "[5]": {"test_system": "ob/ob mice", "assay": "daily i.p. S38151 in ob/ob mice", "type": "in vivo, mouse", "method": "(§3) In these studies, 13-week-old female C57BL/6J, ob/ob, and MCH1-KO mice were used. The mice were maintained on a 12-h light/dark cycle (lights on at 07:30 and off at 19:30) at 22 ± 3°C, and supplied with food pellets (6 mm diameter A03, UAR Laboratory chow, Epinay Villemuisson France) and tap water ad libitum. To induce obesity in C57BL/6J (creating diet-induced obese, or DIO, mice), mice were fed a high-fat diet (60 kcal% fat, 20 kcal% protein, 20 kcal% carbohydrate, ref D12492 from Research Diets, New Brunswick, NJ08901, USA) for 8 weeks starting at 4 weeks of age. In these experiments, DIO mice, ob/ob mice, and MCH^−/−1 mice were individually housed in a modular chamber that was placed on an activity platform to concurrently measure the food intake, water intake, and activity of the mice (ADDENFI, Les Cordeliers, Paris, France). For at least 2 weeks before experimentation, mice were habituated to a diet of 6 mm diameter food pellets of the following composition: 67.5% food flour, 26.5% sucrose, 5% gum tragacanth, 1.25% magnesium stearate (A03 UAR, Orge, France), and to i.p. injection. After this habituation period, food intake, drink intake, and body weight were measured for 3 consecutive days. The mice were randomized into three groups based on their food and water intake over the three preceding 24-h periods, and on their body weight. Next, the quantity of food eaten over each 24-h period during the 5 days of i.p. treatment with S38151 [10 and 30 mg/kg/day (7 and 20 μmol/kg/day)] or vehicle was determined and corrected for spillage.\nFigure 8 The effects of repeated daily S38151 injection on food and water intake, body weight, and motility in ob/ob mice. Genetically modified ob/ob mice were administered S38151 (10 and 30 mg/kg, i.p.) or vehicle (normal saline i.p.) for 6 consecutive days. Results are expressed as mean ± SEM (n = 8 mice per group). White squares for controls, dark squares for 10 mg/kg, and dark triangles for 30 mg/kg."}, "[6]": {"test_system": "MCH1-KO mice", "assay": "daily i.p. S38151 in MCH1-KO mice", "type": "in vivo, mouse", "method": "as §3\nFigure 10 The effects of repeated daily S38151 injection on food and water intake, body weight, and motility in MCHR1-KO mice. MCH1-KO mice were administered S38151 (10 and 30 mg/kg, i.p.) or vehicle (normal saline i.p.) for 5 consecutive days. Results are expressed as mean ± SEM (n = 8 mice per group)."}, "[7]": {"assay": "detection of compound in brain of treated animals", "type": "in vivo", "conditions": "brains from S38151-treated (i.p.-injected) animals, LC-MS/MS, data not shown", "method": "as §1\nFurthermore, we were unable to detect traces of this pseudopeptide in the brains of i.p.-injected animals. Similarly, its effect could not be correlated with aversion owing to a bad test."}, "[8]": {"conditions": "S38151 10 and 30 mg/kg i.p. daily for 5 days, n = 8"}}, "note": "Like-named read-outs stand apart in the source and are kept apart here. Where a SMILES comes first, the peptide text is derived from it."}
{"smiles": "CSCC[C@@H]1NC(=O)[C@@H](NC(=O)c2ccc(NC(=N)N)cc2)CSSC[C@@H](C(=O)N[C@@H](Cc2c[nH]c3ccccc23)C(=O)O)NC(=O)[C@@H]2CCCN2C(=O)[C@H](CCCNC(=N)N)NC(=O)[C@H](Cc2ccc(O)cc2)NC(=O)[C@H](C(C)C)NC(=O)[C@H](CCCNC(=N)N)NC(=O)[C@H](CC(C)C)NC1=O", "note": "[S38151, p-guanidinobenzoyl-(Des-Gly10)-MCH (7–17)] (HELM PEPTIDE1{[N=C(N)Nc1ccc(C(=O)[*:2])cc1].C.M.L.R.V.Y.R.P.C.W}$PEPTIDE1,PEPTIDE1,2:R3-10:R3$$$V2.0; C-terminus assumed)", "values": [{"measurement": "remaining at 16 h, 40 μM", "setting": "[1]; 4°C", "result": 79, "unit": "%"}, {"measurement": "remaining at 16 h, 40 μM", "setting": "[1]; 37°C", "result": 32, "unit": "%"}, {"measurement": "remaining at 16 h, 40 μM", "setting": "[2]; 4°C", "result": 59, "unit": "%"}, {"measurement": "remaining at 16 h, 40 μM", "setting": "[2]; 37°C", "result": 1.5, "unit": "%"}, {"measurement": "Ki", "setting": "[3]; [125I]-S36057 binding, Chinese hamster ovary cells over-expressing MCH1", "result": 80, "unit": "nM"}, {"measurement": "Kb", "setting": "[3]; read-out: KB, GTPγS binding assay", "result": 4.3, "unit": "nM"}, {"measurement": "Kb", "setting": "[3]; read-out: KB, calcium flux assay", "result": 210, "unit": "nM"}, {"measurement": "0.2% saccharine consumption", "setting": "[4]", "result": "did not affect"}, {"measurement": "glycemia and insulinemia", "setting": "[5]; S38151 30 mg/kg i.p., day 6, data not shown", "result": "significant reductions"}, {"measurement": "body weight", "setting": "[5]; S38151 10 and 30 mg/kg i.p. daily for 6 days, 30 mg/kg significant at days 1, 4, 5, 6", "result": "dose-dependent reduction"}, {"measurement": "water intake", "setting": "[5]; S38151 10 and 30 mg/kg i.p. daily for 6 days, same profile as food intake", "result": "did not reach statistical significance"}, {"measurement": "food intake", "setting": "[5]; S38151 10 and 30 mg/kg i.p. daily for 6 days, significant from day 3 only at 30 mg/kg, n = 8", "result": "dose-dependent inhibition"}, {"measurement": "motility", "setting": "[6]; S38151 30 mg/kg (20 μmol/kg/day) i.p. daily for 5 days", "result": "significant reduction"}, {"measurement": "body weight", "setting": "[6]; [8]", "result": "did not induce any significant effects"}, {"measurement": "drink intake", "setting": "[6]; [8]", "result": "did not induce any significant effects"}, {"measurement": "food intake", "setting": "[6]; [8]", "result": "did not induce any significant effects"}, {"measurement": "amount of compound detectable in the brain", "setting": "[7]", "result": "none was detected"}]}
